The values below come from ChEMBL document CHEMBL3046262, “Inhibitory Activity of Indanofan and Its Enantiomers on Biosynthesis of Very-Long-Chain Fatty Acids” (J Pestic Sci, 2005).

Activity calls are given as the source filed them. The calls are words filed in the database; no cut-off is given here. Bounds are passed on as bounds.

What is called inhibition is the percentage by which the read-out fell short of the control.

The subject of assay [1] is Allium ampeloprasum. The assay is described as follows: Competitive inhibition of very long chain fatty acid elongase in Allium ampeloprasum microsome using C18:0-CoA as substrate after 10 min by Lineweaver-Burk plot analysis. It counts as microsomes.
The next assay deals with Echinochloa crus-galli. As to the kind of experiment: Herbicidal activity against Echinochloa crus-galli (barnyard grass) by pot assay. It counts as functional.
A short description of assay [2]: Inhibition of very long chain fatty acid elongase in Allium ampeloprasum microsome using C20:0 as substrate and [14C]-malonate after 10 to 20 min by liquid scintillation counting. It counts as microsomes. The settings on record: read-out: I50.
Assay [3] has as its system Allium ampeloprasum. The assay is described as follows: Inhibition of very long chain fatty acid elongase in Allium ampeloprasum microsome using C20:0 as substrate and [14C]-malonate at 1 x 10^-7 M after 10 to 20 min by liquid scintillation counting. The format is microsomes.
Assay [4] relates to Allium ampeloprasum. The assay is described as follows: Inhibition of very long chain fatty acid elongase in Allium ampeloprasum microsome using C20:0 as substrate and [14C]-malonate at 3 x 10^-8 M after 10 to 20 min by liquid scintillation counting. The format is microsomes.
Assay [5] deals with Allium ampeloprasum. The assay is described as follows: Inhibition of very long chain fatty acid elongase in Allium ampeloprasum microsome using C20:0 as substrate and [14C]-malonate at 1 x 10^-8 M after 10 to 20 min by liquid scintillation counting. It counts as microsomes.
Assay [6] deals with Allium ampeloprasum. As to the kind of experiment: Inhibition of very long chain fatty acid elongase in Allium ampeloprasum microsome using C20:0 as substrate and [14C]-malonate at 3 x 10^-9 M after 10 to 20 min by liquid scintillation counting. The format is microsomes.
Assay [7] is described as follows: Inhibition of very long chain fatty acid elongase in Allium ampeloprasum microsome using C18:0 as substrate and [14C]-malonate after 10 to 20 min by liquid scintillation counting. The format is microsomes. The conditions noted are these: read-out: I50.
The subject of assay [8] is Allium ampeloprasum. The assay is described as follows: Inhibition of very long chain fatty acid elongase in Allium ampeloprasum microsome using C18:0 as substrate and [14C]-malonate at 1 x 10^-7 M after 10 to 20 min by liquid scintillation counting. The format is microsomes.
The test system of assay [9] is Allium ampeloprasum. As to the kind of experiment: Inhibition of very long chain fatty acid elongase in Allium ampeloprasum microsome using C18:0 as substrate and [14C]-malonate at 3 x 10^-8 M after 10 to 20 min by liquid scintillation counting. The format is microsomes.
Assay [10] has as its system Allium ampeloprasum. As to the kind of experiment: Inhibition of very long chain fatty acid elongase in Allium ampeloprasum microsome using C18:0 as substrate and [14C]-malonate at 1 x 10^-8 M after 10 to 20 min by liquid scintillation counting. It counts as microsomes.
Assay [11] has as its system Allium ampeloprasum. The assay is described as follows: Inhibition of very long chain fatty acid elongase in Allium ampeloprasum microsome using C18:0 as substrate and [14C]-malonate at 3 x 10^-9 M after 10 to 20 min by liquid scintillation counting. It counts as microsomes.
Assay [12] has as its system Allium ampeloprasum. The assay is described as follows: Inhibition of very long chain fatty acid elongase in Allium ampeloprasum microsome using C20:0 as substrate and [14C]-malonate at 1 x 10^-4 M after 10 to 20 min by liquid scintillation counting. The format is microsomes.
In assay [13] the test system is Allium ampeloprasum. The assay is described as follows: Inhibition of very long chain fatty acid elongase in Allium ampeloprasum microsome using C20:0 as substrate and [14C]-malonate at 1 x 10^-5 M after 10 to 20 min by liquid scintillation counting. The format is microsomes.
Assay [14] deals with Allium ampeloprasum. The assay is described as follows: Inhibition of very long chain fatty acid elongase in Allium ampeloprasum microsome using C20:0 as substrate and [14C]-malonate at 1 x 10^-6 M after 10 to 20 min by liquid scintillation counting. The format is microsomes.
For assay [15], the system named is Allium ampeloprasum. The assay is described as follows: Inhibition of very long chain fatty acid elongase in Allium ampeloprasum microsome using C18:0 as substrate and [14C]-malonate at 1 x 10^-4 M after 10 to 20 min by liquid scintillation counting. It counts as microsomes.
The test system of assay [16] is Allium ampeloprasum. The assay is described as follows: Inhibition of very long chain fatty acid elongase in Allium ampeloprasum microsome using C18:0 as substrate and [14C]-malonate at 1 x 10^-5 M after 10 to 20 min by liquid scintillation counting. The format is microsomes.
Assay [17] deals with Allium ampeloprasum. The assay is described as follows: Inhibition of very long chain fatty acid elongase in Allium ampeloprasum microsome using C18:0 as substrate and [14C]-malonate at 1 x 10^-6 M after 10 to 20 min by liquid scintillation counting. It counts as microsomes.
The subject of assay [18] is Allium ampeloprasum. As to the kind of experiment: Inhibition of very long chain fatty acid elongase-mediated elongation to arachidic acid in Allium ampeloprasum microsome using [14C]-malonate after 10 to 20 min by liquid scintillation counting. The format is microsomes.
The test system of assay [19] is Allium ampeloprasum. The assay is described as follows: Inhibition of very long chain fatty acid elongase in Allium ampeloprasum microsome using [14C]-malonate assessed per vial at 0.1 uM after 10 to 20 min by liquid scintillation counting. The format is microsomes.

`CCC1(C[C@]2(c3cccc(Cl)c3)CO2)C(=O)c2ccccc2C1=O` [(S)-INDANOFAN]: in the assay on Allium ampeloprasum [1], the inhibition entry is “Active”. This compound displayed an ED50 with Echinochloa crus-galli of 0.0254 KgAi/ha. Besides, the IC50 stood at 0.025 µM in assay [2] and 0.017 µM in [7]. The inhibition (INH) with Allium ampeloprasum [3] was 76%; in the assay on Allium ampeloprasum [4] it was 54%; with Allium ampeloprasum [5] it was 31%; with Allium ampeloprasum [6] it was 15%; in the assay with Allium ampeloprasum [8], 93%; in the assay with Allium ampeloprasum [9] it was 71%. Further, the inhibition (INH) was found to be 30% with Allium ampeloprasum [10] and 7% in the assay with Allium ampeloprasum [11].
Turning to `CCC1(C[C@@]2(c3cccc(Cl)c3)CO2)C(=O)c2ccccc2C1=O` [(R)-INDANOFAN], in the assay on Echinochloa crus-galli, the ED50 entry was “inactive”. Besides, the inhibition (INH) was 38% in the assay on Allium ampeloprasum [12]; 27% in the assay on Allium ampeloprasum [13]; 18% in the assay on Allium ampeloprasum [14]; 25% with Allium ampeloprasum [15]; 23% with Allium ampeloprasum [16]; 14% in the assay with Allium ampeloprasum [17]. The same compound yielded an inhibition (INH) in the assay with Allium ampeloprasum [3] of 9%. Also, the IC50 in assay [2] and in assay [7] was more than 1000 µM in each case.
`CCC1(CC2(c3cccc(Cl)c3)CO2)C(=O)c2ccccc2C1=O` (stereo not drawn) [(RS)-INDANOFAN] showed an inhibition with Allium ampeloprasum [18] of 86%. Further, in the assay on Allium ampeloprasum [19], the INH was 3.6 pmol. In addition, the ED50 in the assay on Echinochloa crus-galli was determined as 0.0524 KgAi/ha. Also, the results for the IC50 in [2] and in assay [7] were 0.071 µM and 0.03 µM, respectively. The inhibition (INH) was found to be 60% in the assay on Allium ampeloprasum [3]; 31% in the assay on Allium ampeloprasum [4]; 11% in the assay with Allium ampeloprasum [5]; 8% in the assay on Allium ampeloprasum [6]; 82% in the assay on Allium ampeloprasum [8]; 49% with Allium ampeloprasum [9]. In addition, the figures for the inhibition (INH) in the assay with Allium ampeloprasum [10] and in the assay with Allium ampeloprasum [11] were 19% and 9%, respectively.
